This passage reports melting point results from patent US20220144853A1, “IMIDAZOLINE DERIVATIVES AS CXCR4 MODULATORS” (Université de Paris, priority 2019, published 2022).

SMILES strings stand for the structures. Where a name gives a salt, the structure may show the parent alone.

For orientation: melting point means the temperature of the solid-liquid transition. As for `CCCCC1CN=C(SCC2=CSC3=NC(Cc4ccccc4)CN23)N1` (stereo not drawn) (as salt: hydrochloride) [Example 51, 6-benzyl-3-(((5-butyl-4,5-dihydro-1H-imidazol-2-yl)thio)methyl)-5,6-dihydroinidazo[2,1-b]thiazole dihydrochloride], the melting point lay within 150 to 154 °C. As for `CC(C)C1CN2C(CSC3=NCC(C)(C)N3)=CSC2=N1` (stereo not drawn) (as salt: hydrochloride) [Example 52, 3-(((5,5-dimethyl-4,5-dihydro-1H-imidazol-2-yl)thio)methyl)-6-isopropyl-5,6-dihydroimidazo[2,1-b]thiazole dihydrochloride], the figure is 227 to 232 °C. As for `CC1(C)CN2C(CSC3=NCC(c4ccccc4)N3)=CSC2=N1` (stereo not drawn) (as salt: hydrochloride) [Example 53, 6,6-dimethyl-3-(((4-phenyl-4,5-dihydro-1H-imidazol-2-yl)thio)methyl)-5,6-dihydroimidazo[2,1-b]thiazole dihydrochloride], the figure is 110 to 120 °C. In the case of `CN1CCCN=C1SCC1=CSC2=NC(C)(C)CN12` (as salt: hydrochloride) [Example 57, 6,6-dimethyl-3-(((1-methyl-1,4,5,6-tetrahydropyrimidin-2-yl)thio)methyl)-5,6-dihydroimidazo[2,1-b]thiazole dihydrochloride], the melting point was 245 to 249 °C. As for `CC(C)[C@@H]1N=C(SCC2=CSC3=NC(C)(C)CN23)N[C@H]1C(C)C` (as salt: hydrochloride) [Example 58, 3-((((4S,5S)-4,5-diisopropyl-4,5-dihydro-1H-imidazol-2-yl)thio)methyl)-6,6-dimethyl-5,6-dihydroimidazo[2,1-b]thiazole dihydrochloride], the figure is 154 to 160 °C; as for `C1=C(CSC2=NCC(Cc3ccccc3)N2)N2CC(Cc3ccccc3)N=C2S1` (stereo not drawn) (as salt: hydrochloride) [Example 60, 6-benzyl-3-(((5-benzyl-4,5-dihydro-1H-imidazol-2-yl)thio)methyl)-5,6-dihydroimidazo[2,1-b]thiazole dihydrochloride], 117 to 121 °C. As for `C1=C(CSC2=N[C@@H]3CCCC[C@H]3N2)N2CC(Cc3ccccc3)N=C2S1` (stereo partly drawn) (as salt: hydrochloride) [Example 61, 6-benzyl-3-((((3aR,7aR)-3a,4,5,6,7,7a-hexahydro-1H-benzo[d]imidazol-2-yl)thio)methyl)-5,6-dihydroimidazo[2,1-b]thiazole dihydrochloride], the figure is 125 to 130 °C. With `CC1(C)CN2C(=N1)SC(I)=C2CSC1=NCC(C)(C)N1` (as salt: hydrochloride) [Example 66, 3-(((5,5-dimethyl-4,5-dihydro-1H-imidazol-2-yl)thio)methyl)-2-iodo-6,6-dimethyl-5,6-dihydroimidazo[2,1-b]thiazole dihydrochloride], the melting point is 169 to 180 °C (dec.). As for `CC1(C)CN2C(=N1)SCC2SC1=NCC(C)(C)N1` (stereo not drawn) (as salt: hydrochloride) [Example 70, 3-((5,5-dimethyl-4,5-dihydro-1H-imidazol-2-yl)thio)-6,6-dimethyl-2,3,5,6-tetrahydroimidazo[2,1-b]thiazole dihydrochloride], the figure is 240 to 243 °C; as for `C1=C(CSC2=N[C@H]3COC[C@H]3N2)N2C(=N[C@@H]3COC[C@@H]32)S1` (mixture of isomers) (as salt: hydrochloride) [Example 36, mixture of (4aS,7aR)-3-((((3aS,6aR)-3a,4,6,6a-tetrahydro-1H-furo[3,4-d]imidazol-2-yl)thio)methyl)-4a,5,7,7a-tetrahydrofuro[3′,4′:4,5]imidazo[2,1-b]thiazole dihydrochloride and (4aR,7aS)-3-((((3aR,6aS)-3a,4,6,6a-tetrahydro-1H-furo[3,4-d]imidazol-2-yl)thio)methyl)-4a,5,7,7a-tetrahydrofuro[3′,4′: 4,5]imidazo[2,1-b]thiazole dihydrochloride], over 250 °C. The same measure for `CC1(C)CN=C(SCC2=CSC3=N[C@H]4CCCC[C@@H]4N23)N1` (racemic) (as salt: hydrochloride) [Example 7, trans-3-(((4,4-dimethyl-4,5-dihydro-1H-imidazol-2-yl)thio)methyl)-4a,5,6,7,8,8a-hexahydrobenzo[4,5]imidazo[2,1-b]thiazole dihydrochloride]: 248 to 252 °C; for `CC1(C)CN=C(SCC2=CSC3=N[C@H]4CCCC[C@H]4N23)N1` (racemic) (as salt: hydrochloride) [Example 10, cis-3-(((4,4-dimethyl-4,5-dihydro-1H-imidazol-2-yl)thio)methyl)-4a,5,6,7,8,8a-hexahydrobenzo[4,5]imidazo[2,1-b]thiazole dihydrochloride]: 210 to 215 °C; for `CC1(C)CN=C(SCC2=CSC3=N[C@H]4CCCC(C4)N23)N1` (racemic) (as salt: hydrochloride) [Example 23, cis-3-(((5,5-dimethyl-4,5-dihydro-1H-imidazol-2-yl)thio)methyl)-6,7,8,9-tetrahydro-5H-5,9-methanothiazolo[3,2-a][1,3]diazocine dihydrochloride]: 240 to 245 °C. The same measure for `CCCCC1CN=C(SCC2=CSC3=N[C@H]4CCCCC4N23)N1` (mixture of isomers) (as salt: hydrochloride) [Example 54, trans-3-(((5-butyl-4,5-dihydro-1H-imidazol-2-yl)thio)methyl)-4a,5,6,7,8,8a-hexahydrobenzo[4,5]imidazo[2,1-b]thiazole dihydrochloride]: 226 to 230 °C.

In the case of `C1=C(CSC2=NCC(Cc3ccccc3)N2)N2C(=N[C@H]3CCCCC32)S1` (mixture of isomers) (as salt: hydrochloride) [Example 55, trans-3-(((5-benzyl-4,5-dihydro-1H-imidazol-2-yl)thio)methyl)-4a,5,6,7,8,8a-hexahydrobenzo[4,5]imidazo[2,1-b]thiazole dihydrochloride], the melting point is 137 to 142 °C. The same measure for `C1=C(CSC2=NCCN2)N2C(=N[C@H]3CCCCC32)S1` (mixture of isomers) (as salt: hydrochloride) [Example 59, trans-3-(((4,5-dihydro-1H-imidazol-2-yl)thio)methyl)-4a,5,6,7,8,8a-hexahydrobenzo[4,5]imidazo[2,1-b]thiazole dihydrochloride]: 115 to 120 °C. As for `CC(C)[C@@H]1N=C2SC=C(CSC3=NCC(C)(C)N3)N2[C@H]1C(C)C` (racemic) (as salt: hydrochloride) [Example 62, trans-3-(((5,5-dimethyl-4,5-dihydro-1H-imidazol-2-yl)thio)methyl)-5,6-diisopropyl-5,6-dihydroimidazo[2,1-b]thiazole dihydrochloride], the figure is 237 to 241 °C. The same measure for `CN1CCN=C1SCC1=CSC2=NC3CCCCC3N12` (racemic) (as salt: hydrochloride) [Example 63, trans-3-(((1-methyl-4,5-dihydro-1H-imidazol-2-yl)thio)methyl)-4a,5,6,7,8,8a-hexahydrobenzo[4,5]imidazo[2,1-b]thiazole dihydrochloride]: 204 to 207 °C.
